# Values quoted from earlier work as cited in patent US20220211602A1, “INCREASING THE STABILITY OF AGENTS FOR TREATING KERATIN MATERIAL” (Henkel AG & Co. KGaA, priority 2019, published 2022).
# Details: for solubility in water: 25° C.
SMILES,solubility in water (in words) (at 25° C.),solubility in water
"O=C([O-])C1=NN(c2ccc(S(=O)(=O)[O-])cc2)C(=O)C1N=Nc1ccc(S(=O)(=O)[O-])cc1.[Na+].[Na+].[Na+] (stereo not shown) [Acid Yellow 23, trisodium salt of4,5-dihydro-5-oxo-1-(4-sulfophenyl)-4-((4-sulfophenyl)azo)-1H-pyrazole-3-carboxylic acid]",highly soluble,
"O=C([O-])c1c(Cl)c(Cl)c(Cl)c(Cl)c1-c1c2c(Br)cc(=O)c(Br)c-2oc2c(Br)c(O)cc(Br)c12.O=C([O-])c1c(Cl)c(Cl)c(Cl)c(Cl)c1-c1c2c(Br)cc(=O)c(Br)c-2oc2c(Br)c(O)cc(Br)c12.[Na+].[Na+] [Acid Red 92, disodium salt of 3,4,5,6-tetrachloro-2-(1,4,5,8-tetrabromo-6-hydroxy-3-oxoxanthen-9-yl)benzoic acid]",,greater than 10 g/L
"O=S(=O)([O-])c1ccc(N=Nc2c(O)ccc3ccccc23)cc1.[Na+] [Acid Orange 7, sodium salt of 4-[(2-hydroxy-1-naphthyDazo]benzene sulphonate]",,more than 7 g/L
"Nc1cc(S(=O)(=O)[O-])cc2cc(S(=O)(=O)[O-])c(N=Nc3ccccc3)c(O)c12.[Na+].[Na+] [Acid Red 33, disodium salt of 5-amino-4-hydroxy-3-(phenylazo)-naphthalene-2,7-disulphonate]",,2500 µg/mL
